{"source": "patent US6576592B1", "about": "“Herbicide composition” (Sumitomo Chemical Company, Limited, priority 1999, dated 2003)", "key": {"yellow nutsedge": {"system": "yellow nutsedge", "assay": "Test Example 1: foliar treatment of pot-grown yellow nutsedge in greenhouse, herbicidal activity", "assay_type": "in vivo, yellow nutsedge (Cyperus esculentus)", "details": "sprayed over plants grown 26 days, examined 10 days after application, index 0 to 10", "source_text": "The values, “7”, “8”, “9”, and “10” of the herbicidal effect mean a excellent herbicidal effect.\n(§1) Plastic pots each having a diameter of 11 cm and a depth of 8 cm were filled with upland soil, and then buried tubers of yellow nutsedge. And test plants were given 26 days to grow in greenhouse.An emulsifiable concentrate of compound A which had been obtained by well mixing 5 parts of compound A, 6 parts of Sorpol 3005X (produced by Toho Chemical Industry, Co., Ltd.) and 89 parts of xylene, a formulated glyphosate product (trade name: Roundup; seller, Monsanto Japan Limited), and a mixture of the emulsifiable concentrate of compound A and the formulated glyphosate product were independently diluted in their prescribed amounts with water. Each dilution was uniformly sprayed over the plants with a small sprayer, and then corn was further seeded. After the application the test plants were grown in the greenhouse for further 10 days and then, herbicidal activity and phytotoxicity to corn were examined."}, "corn": {"system": "corn", "assay": "Test Example 1: phytotoxicity to corn seeded after application", "assay_type": "in vivo", "parameters": "key: “no harm” means that the phytotoxicity was unrecognizable or almost unrecognized; “small” means that a slight degree of phytotoxicity was recognized; “medium” means that a medium degree of phytotoxicity was recognized; “large” means that a large degree of phytotoxicity was recognized", "details": "corn seeded after spraying, examined after 10 days", "method": "The phytotoxicity is evaluated like these, “no harm” means that the phytotoxicity was unrecognizable or almost unrecognized, “small” means that a slight degree of phytotoxicity was recognized, “medium” means that a medium degree of phytotoxicity was recognized, and “large” means that a large degree of phytotoxicity was recognized.\nas §1"}}, "note": "Structures can show the parent of a compound that is named as a salt.", "data": [{"smiles": "O=C(O)CNCP(=O)(O)O", "note": "[Glyphosate isopropylamine salt, N-(phosphonomethyl)glycine]", "values": [{"measurement": "Herbicidal activity Yellow nutsedge", "setting": "yellow nutsedge; dosage 560 g/ha", "result": 1}, {"measurement": "Phytotoxicity Corn", "setting": "corn; dosage 560 g/ha", "result": "no harm"}]}, {"smiles": "COC(=O)C(C)Oc1cc(-n2c(=O)cc(C(F)(F)F)n(C)c2=O)c(F)cc1Cl", "note": "(stereo not shown) [Compound A, methyl 2-[2-chloro-4-fluoro-5-{3-methyl-2,6-dioxo-4-(trifluoromethyl)-1,2,3,6-tetrahydropyrimidin-1-yl}phenoxy]propionate]", "values": [{"measurement": "Herbicidal activity Yellow nutsedge", "setting": "yellow nutsedge; dosage 120 g/ha", "result": 4}, {"measurement": "Phytotoxicity Corn", "setting": "corn; dosage 120 g/ha", "result": "no harm"}]}]}
